According to PMC10499581 (Journal of Ginseng Research, 2023):

Columns and labels:
PURA = target: T1, PURA (Rattus norvegicus, UniProt A0A8I5YBE8); test: biolayer interferometry, single concentration; assay type: binding; settings: 30 °C, His-tagged PURA immobilized
T1 sequence (A0A8I5YBE8 1-321): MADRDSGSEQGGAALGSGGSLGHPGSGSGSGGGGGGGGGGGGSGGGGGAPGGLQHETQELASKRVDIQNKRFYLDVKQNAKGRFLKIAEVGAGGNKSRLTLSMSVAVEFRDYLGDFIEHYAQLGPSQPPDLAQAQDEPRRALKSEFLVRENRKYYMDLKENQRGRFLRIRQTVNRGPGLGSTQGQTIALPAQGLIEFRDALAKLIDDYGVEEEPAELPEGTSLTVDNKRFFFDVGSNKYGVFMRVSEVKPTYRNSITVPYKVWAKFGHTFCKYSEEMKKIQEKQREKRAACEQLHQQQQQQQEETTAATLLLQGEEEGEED

[1] = target: T2, Pur-alpha (PURA), wild type, recombinant His-tagged (rat, UniProt A0A8I5YBE8 1-321); test: BLI
T2 sequence (looked up): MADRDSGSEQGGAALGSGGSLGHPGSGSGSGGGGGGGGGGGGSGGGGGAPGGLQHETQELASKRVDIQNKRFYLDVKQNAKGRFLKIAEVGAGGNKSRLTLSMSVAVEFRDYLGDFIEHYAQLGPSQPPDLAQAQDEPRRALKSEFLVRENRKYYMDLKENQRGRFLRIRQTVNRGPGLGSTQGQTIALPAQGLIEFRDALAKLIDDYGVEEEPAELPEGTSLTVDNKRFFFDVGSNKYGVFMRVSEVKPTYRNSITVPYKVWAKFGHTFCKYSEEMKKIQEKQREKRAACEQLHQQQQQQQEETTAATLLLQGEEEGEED

Molecule	wavelength shift at 300 μM (PURA)	Kd [1]
CC(C)=CCC[C@](C)(O)[C@H]1CC[C@]2(C)[C@@H]1[C@H](O)C[C@@H]1[C@@]3(C)CC[C@H](O[C@@H]4O[C@H](CO)[C@@H](O)[C@H](O)[C@H]4O)C(C)(C)[C@@H]3CC[C@]12C [Rh2]	The direct binding strength of PURA to Rb1,Re, Rh1, Rg1, F1, Rd, Rh2,CK, PPD	
CC(C)=CCC[C@](C)(O[C@@H]1O[C@H](CO)[C@@H](O)[C@H](O)[C@H]1O)[C@H]1CC[C@]2(C)[C@@H]1[C@H](O)C[C@@H]1[C@@]3(C)CC[C@H](O)C(C)(C)[C@@H]3CC[C@]12C [CK]	The direct binding strength of PURA to Rb1,Re, Rh1, Rg1, F1, Rd, Rh2,CK, PPD	
CC(C)=CCC[C@](C)(O[C@@H]1O[C@H](CO)[C@@H](O)[C@H](O)[C@H]1O)[C@H]1CC[C@]2(C)[C@@H]1[C@H](O)C[C@@H]1[C@@]3(C)CC[C@H](O)C(C)(C)[C@@H]3[C@@H](O)C[C@]12C [F1]	The direct binding strength of PURA to Rb1,Re, Rh1, Rg1, F1, Rd, Rh2,CK, PPD	
CC(C)=CCC[C@](C)(O)[C@H]1CC[C@]2(C)[C@@H]1[C@H](O)C[C@@H]1[C@@]3(C)CC[C@H](O)C(C)(C)[C@@H]3[C@@H](O[C@@H]3O[C@H](CO)[C@@H](O)[C@H](O)[C@H]3O)C[C@]12C [Rh1]	The direct binding strength of PURA to Rb1,Re, Rh1, Rg1, F1, Rd, Rh2,CK, PPD	
Pur-beta (PURB) (natural protein, UniProt Q68A21 1-315, looked up) MADGDSGSERGGGGPGSFQPAPRGGGGPGGEQETQELASKRLDIQNKRFYLDVKQNAKGRFLKIAEVGAGGSKSRLTLSMAVAAEFRDSLGDFIEHYAQLGPSSPEQLAAGAEEGGGPRRALKSEFLVRENRKYYLDLKENQRGRFLRIRQTVNRGGGGFGGGPGPGGLQSGQTIALPAQGLIEFRDALAKLIDDYGGEDDELAGGPGGGAGGPGGGLYGELPEGTSITVDSKRFFFDVGCNKYGVFLRVSEVKPSYRNAITVPFKAWGKFGGAFCRYADEMKEIQERQRDKLYERRGGGSGGGDESEGEEVDED		1930 nM
